Data taken from patent US9801851B2, “Methods and compositions for the treatment of BCR-ABL positive lymphoblastic leukemias” (ST. JUDE CHILDREN'S RESEARCH HOSPITAL, priority 2012, dated 2017).
Like-named read-outs stand apart in the source and are kept apart here.

Experiments:
Arf−/− BCR-ABL^WT LICs [1] = format: in vivo
[2] = tested on: human Ph+ ALL SUPB15 cells; test: Cell viability, MTS assay, 72 h; format: cell-based
Description: Drug delivery to cell suspensions was accomplished with a V & P Scientific (San Diego, Calif.) pin. For murine-human comparisons, human SUP-B15 Ph+ ALL cells (DSMZ cell culture collection, Germany) in McCoy's media containing 20% fetal calf serum and penicillin/streptomycin (Invitrogen, Carlsbad, Calif.), were plated at 12,500 cells in 25 μL per well in black clear-bottom 384-well microtiter plates. Drugs were transferred by pin-transfer. After 72 h incubation at 37° C., 20% (by volume) MTS assay reagent (CellTiter 96 Aqueous One Solution, Promega, Madison, Wis.) was added, microtiter plates were incubated for 75 min at 37° C., and read colorimetrically at 490 nm.

[3] = In vivo toxicity studies of DHA by oral gavage; details: repeated single doses of 300 mg/kg, 5 days/week
Description: In toxicity studies, DHA was ranged up to 300 mg/kg as a single or split dose for 5 days/week over a six week time period. […] During therapeutic studies, animal weights were monitored daily to ensure no significant body weight reductions.

Arf−/− BCR-ABL^WT LICs [4] = test: LIC growth inhibition, CellTiter-Glo (CTG) assay, 72 h; format: cell-based, murine; details: for effect of cytokine on dasatinib potency: 72-h dasatinib exposure in presence of increasing concentrations of cytokine
Description: Replication-defective mouse stem cell virus (MSCV) retroviral vectors co-expressing either the wild-type (WT) allele of human p185^BCR-ABL or mutant BCR-ABL alleles p185^T315I or p185^F317L, and either green fluorescent protein (GFP) or luciferase, were packaged into replication-incompetent ecotropic virions. Whole bone marrow cell suspensions from Arf^−/− young adult mice were infected to produce Arf^−/− p185+ pre-B cells. […] Prior to use in any assays, Arf^−/− p185^WT and Arf^−/− p185^T315I pre-B cells (BCR-ABL^WT leukemia initiating cells (LICs) and BCR-ABL^T315I LICs, respectively) were thawed and allowed to recover in BCM10 for 3 days.
The maximum dimethyl sulfoxide (DMSO) concentration tolerated by LICs in culture was determined to be 0.2% (by volume) and was maintained at ≦0.1% (by volume) in all subsequent work. […] Both cell types were plated at multiple cell dilutions (n=3 for each condition, time=0 h) in 6-well plates and serially followed daily for 5 days to evaluate absolute viable cell count, total viability, doubling times, and total population doublings, using the Beckman Coulter cell counter (trypan blue staining) and fluorescence-activated cell sorting (FACS) analysis in parallel. […] FACS cell-cycle analysis confirmed that a population doubling time less than 14 h was sufficient to maintain cells in exponential growth (>50% cells in S-phase).
After a 72 h drug challenge, LIC growth was measured by the 3 cellular readouts: CellTiter-Glo® (CTG) assay (ATP content), MTS (3-(4,5-dimethylthiazol-2-yl)-5-(3-carboxymethoxyphenyl)-2-(4-sulfophenyl)-2H-tetrazolium) assay (viability), and high-throughput flow cytometry (total viability and viable cell counts by DAPI exclusion). Measured assay readouts at various drug concentrations (x-axis) were normalized to DMSO-treated LICs and graphed (+/−sd) on y-axis.

C[C@@H]1CCC2[C@@H](C)[C@@H](O)O[C@@H]3OC4(C)CC[C@@H]1[C@@]23OO4 (some centres unmarked) [DHA, dihydroartemisinin]
efficacy alone in high-burden leukemia model (Arf−/− BCR-ABL^WT LICs [1]; 200 mg/kg): completely ineffective
efficacy alone in high-burden leukemia model (Arf−/− BCR-ABL^WT LICs [1]; 300 mg/kg): poorly effective
survival benefit, monotherapy (Arf−/− BCR-ABL^WT LICs [1]; IL7+/+ host mice, low-burden 2×10^3 LICs, 100, 200, 300 mg/kg once daily 5 days/week from day 3): dose-dependent survival benefit
killing of human Ph+ ALL cell line [2]: actively kill
toxicity findings [3]: no significant weight loss, lethargy, seizures or deaths

C[C@@H]1CC[C@H]2[C@@H](C)C(=O)O[C@@H]3O[C@@]4(C)CC[C@@H]1[C@]32OO4 [artemisinin]
anti-LIC potency (Arf−/− BCR-ABL^WT LICs [4]; BCR-ABL^WT and BCR-ABL^T315I LICs, 72 h, absence or presence of 1 ng/mL murine IL7): lower than that of artesunate or DHA

C[C@H]1[C@H](OC(=O)CCC(=O)O)O[C@@H]2O[C@@]3(C)CC[C@H]4[C@H](C)CC[C@@H]1[C@@]24OO3 [artesunate]
killing of human Ph+ ALL cell line [2]: actively kill

TGF-β
effect of cytokine on dasatinib potency (Arf−/− BCR-ABL^WT LICs [4]): enhance dasatinib activity

TSLP: thymic stromal lymphopoietin, IL7-like cytokine
effect of cytokine on dasatinib potency (Arf−/− BCR-ABL^WT LICs [4]): confer some resistance

IL4: recombinant murine hematopoietic cytokine
effect of cytokine on dasatinib potency (Arf−/− BCR-ABL^WT LICs [4]): confer some resistance

B1: IL7: recombinant murine cytokine, leukemia-microenvironment host factor (protein, UniProt P10168 26-154, looked up)
Interleukin-7: ECHIKDKEGKAYESVLMISIDELDKMTGTDSNCPNNEPNFFRKHVCDDTKEAAFLNRAARKLKQFLKMNISEEFNVHLLTVSQGTQTLVNCTSKEEKNVKEQKKNDACFLKRLLREIKTCWNKILKGSI
effect of cytokine on dasatinib potency (Arf−/− BCR-ABL^WT LICs [4]): strongest protection against dasatinib
